The values that follow come from publication PMC12503911, “Cytotoxicity of Atropisomeric [1,1′‐Binaphthalene]‐2,2′‐Diamines (BINAM) and Analogs in Human Cancer Cells: Enantioselectivity, Structure–Activity Relationships, and Mechanism” (Chemmedchem, 2025).

SMILES strings stand for the structures. Read-outs that look alike come from different tables or passages of the source.

Test in all cases: biochemical
Common to all, as to parameters: 33PanQinase radiometric kinase activity assay, residual activity in % of control, contract lab Reaction Biology

One assay concerns the target LIMK1 (Homo sapiens, UniProt P53667). As to conditions: mean of intraexperimental duplicates, n = 1; read-out: Residual activities [% of control] / 1(R) 10 µM. On the procedure: (§1) Kinase Screening was performed at Reaction Biology (Freiburg, Germany) by using the ^33PanQinase Assay.^[ [90] ^] Based on this knowledge, we commissioned a kinase screening by the firm Reaction Biology, targeting those kinases whose inhibition has shown an indirect effect on microtubules. In our selection, we included additional kinases that are known to be involved in centrosome amplification (PLK4^[ [82] ^]), centrosome clustering (CDK1/2,^[ [83] ^] PLK1^[ [84] ^]), spindle multipolarity (SRC^[ [85] ^]), microtubule dynamics (AKT1^[ [86] ^]), and LIMK1/2 activation (ROCK1^[ [87] ^]) or are crucial for the mitosis (BUB1B, NEK2/9, WEE1^[ [88] ^]). Nonetheless, 1(R) and 1(S) at 10 µM had almost no inhibitory effects on any of the chosen kinases (Table 4 ). Only Aurora A (mean residual activity for 1(R): 86%, 1(S): 98%) and ASK1 (mean residual activity for 1(R): 90%, 1(S): 117%) were slightly enantioselectively impacted. However, we theorize that those marginal inhibitions are not explanatory for the antiproliferative and morphological effects of 1(R) on cancer cells.

A further assay deals with WEE1 (Homo sapiens, UniProt P30291). As to conditions: mean of intraexperimental duplicates, n = 1. On the procedure: as §1
Chain of WEE1 (P30291 whole entry): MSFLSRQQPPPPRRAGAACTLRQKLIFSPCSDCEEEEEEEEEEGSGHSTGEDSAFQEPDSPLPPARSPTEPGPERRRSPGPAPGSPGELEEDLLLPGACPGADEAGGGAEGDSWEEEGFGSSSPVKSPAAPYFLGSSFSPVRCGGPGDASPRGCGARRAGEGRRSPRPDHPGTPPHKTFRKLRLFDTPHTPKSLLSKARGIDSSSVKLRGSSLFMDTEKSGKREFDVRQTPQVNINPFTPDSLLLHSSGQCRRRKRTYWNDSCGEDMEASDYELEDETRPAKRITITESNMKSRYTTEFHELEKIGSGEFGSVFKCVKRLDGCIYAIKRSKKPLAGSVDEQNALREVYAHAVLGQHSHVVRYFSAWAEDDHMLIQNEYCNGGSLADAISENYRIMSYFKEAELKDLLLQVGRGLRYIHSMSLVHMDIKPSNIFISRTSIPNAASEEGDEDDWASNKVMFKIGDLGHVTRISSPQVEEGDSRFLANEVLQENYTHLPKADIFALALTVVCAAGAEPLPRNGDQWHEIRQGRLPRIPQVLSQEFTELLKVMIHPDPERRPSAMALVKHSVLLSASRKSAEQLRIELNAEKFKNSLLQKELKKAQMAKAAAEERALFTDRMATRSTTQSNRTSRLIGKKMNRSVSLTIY
Another assay addresses T1, AuroraC (Homo sapiens, UniProt Q9UQB9).
T1 construct: gene AURKC
T1 sequence (Q9UQB9 1-309): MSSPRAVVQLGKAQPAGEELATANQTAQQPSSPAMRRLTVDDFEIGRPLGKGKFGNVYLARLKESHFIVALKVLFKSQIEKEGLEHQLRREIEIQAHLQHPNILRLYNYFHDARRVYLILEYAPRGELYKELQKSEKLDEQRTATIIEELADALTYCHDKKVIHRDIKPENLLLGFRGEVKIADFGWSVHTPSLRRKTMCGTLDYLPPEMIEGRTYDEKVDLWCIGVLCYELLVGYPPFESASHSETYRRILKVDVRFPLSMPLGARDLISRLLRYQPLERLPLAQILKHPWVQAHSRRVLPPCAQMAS
To be noted: mean of intraexperimental duplicates, n = 1. On the procedure:
as §1

For the next assay, the target named is T2, AuroraB (Homo sapiens, UniProt Q96GD4).
T2 construct: gene AURKB
T2 sequence (Q96GD4 whole entry): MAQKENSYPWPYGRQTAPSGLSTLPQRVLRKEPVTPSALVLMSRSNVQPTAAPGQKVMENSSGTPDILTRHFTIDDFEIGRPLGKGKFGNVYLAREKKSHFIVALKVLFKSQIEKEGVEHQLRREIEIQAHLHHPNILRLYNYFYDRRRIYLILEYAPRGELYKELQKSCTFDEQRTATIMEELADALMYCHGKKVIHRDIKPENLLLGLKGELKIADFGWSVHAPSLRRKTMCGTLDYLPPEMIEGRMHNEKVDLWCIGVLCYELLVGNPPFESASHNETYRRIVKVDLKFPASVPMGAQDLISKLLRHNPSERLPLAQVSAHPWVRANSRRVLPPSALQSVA
To be noted: mean of intraexperimental duplicates, n = 1; read-out: Residual activities [% of control] / 1(R) 10 µM. The method, then:
as §1

The next assay has as its target SRC (Homo sapiens, UniProt P12931). To be noted: mean of intraexperimental duplicates, n = 1. On the procedure:
as §1

A further assay concerns the target T3, AuroraA (Homo sapiens, UniProt O14965).
T3 construct: gene AURKA
T3 sequence (O14965 1-403): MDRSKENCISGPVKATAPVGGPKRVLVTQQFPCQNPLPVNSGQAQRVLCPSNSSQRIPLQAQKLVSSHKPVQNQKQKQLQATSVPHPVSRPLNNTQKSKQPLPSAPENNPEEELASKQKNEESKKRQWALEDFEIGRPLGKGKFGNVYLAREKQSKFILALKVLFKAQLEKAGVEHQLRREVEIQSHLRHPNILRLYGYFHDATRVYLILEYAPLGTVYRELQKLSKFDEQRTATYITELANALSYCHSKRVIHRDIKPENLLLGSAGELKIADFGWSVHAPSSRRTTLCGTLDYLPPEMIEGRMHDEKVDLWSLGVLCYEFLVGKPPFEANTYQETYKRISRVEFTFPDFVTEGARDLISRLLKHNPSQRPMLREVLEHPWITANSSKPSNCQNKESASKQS
To be noted: mean of intraexperimental duplicates, n = 1; read-out: Residual activities [% of control] / 1(S) 10 µM. The method, then:
as §1

The mark [1] stands for this setting: read-out: Residual activities [% of control] / 1(R) 10 µM.
Setting [2] is: read-out: Residual activities [% of control] / 1(S) 10 µM.

Chain of SRC (P12931 whole entry): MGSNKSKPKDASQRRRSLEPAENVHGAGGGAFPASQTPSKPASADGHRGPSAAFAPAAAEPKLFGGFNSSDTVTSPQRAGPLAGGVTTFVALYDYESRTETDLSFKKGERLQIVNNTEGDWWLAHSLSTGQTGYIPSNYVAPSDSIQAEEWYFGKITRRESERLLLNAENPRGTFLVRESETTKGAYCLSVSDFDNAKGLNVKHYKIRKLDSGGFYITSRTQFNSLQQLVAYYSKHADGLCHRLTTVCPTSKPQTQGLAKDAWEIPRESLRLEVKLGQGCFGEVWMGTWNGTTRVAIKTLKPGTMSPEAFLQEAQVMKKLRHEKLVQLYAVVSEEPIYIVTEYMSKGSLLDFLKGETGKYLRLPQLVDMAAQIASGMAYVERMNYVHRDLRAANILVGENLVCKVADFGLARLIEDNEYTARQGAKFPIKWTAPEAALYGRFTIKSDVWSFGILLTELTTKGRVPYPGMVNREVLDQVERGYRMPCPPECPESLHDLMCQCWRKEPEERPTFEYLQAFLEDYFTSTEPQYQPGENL
Chain of LIMK1 (P53667 whole entry): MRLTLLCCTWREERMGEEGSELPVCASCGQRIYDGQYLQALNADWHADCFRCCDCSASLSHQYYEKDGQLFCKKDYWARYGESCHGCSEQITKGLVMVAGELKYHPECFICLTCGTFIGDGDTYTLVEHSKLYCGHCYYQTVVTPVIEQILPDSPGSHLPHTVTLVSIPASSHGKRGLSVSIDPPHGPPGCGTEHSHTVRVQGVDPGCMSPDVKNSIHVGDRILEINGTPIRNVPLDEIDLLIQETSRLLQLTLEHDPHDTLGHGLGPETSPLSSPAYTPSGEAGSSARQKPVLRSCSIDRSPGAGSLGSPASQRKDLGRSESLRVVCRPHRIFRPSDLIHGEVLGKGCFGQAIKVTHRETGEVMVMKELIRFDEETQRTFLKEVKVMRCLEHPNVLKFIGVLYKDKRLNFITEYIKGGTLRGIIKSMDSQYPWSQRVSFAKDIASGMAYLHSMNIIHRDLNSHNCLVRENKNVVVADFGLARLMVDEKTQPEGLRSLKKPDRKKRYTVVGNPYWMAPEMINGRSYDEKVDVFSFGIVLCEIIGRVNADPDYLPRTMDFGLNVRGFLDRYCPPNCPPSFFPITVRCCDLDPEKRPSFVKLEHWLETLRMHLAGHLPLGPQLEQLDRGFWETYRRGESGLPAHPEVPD

In the case of `Nc1ccc2ccccc2c1-c1c(N)ccc2ccccc12` [1(R), (R)‐[1,1′‐binaphthalene]‐2,2′‐diamine], the remaining activity at 10 µM worked out at 103% on LIMK1; 99% on WEE1 (setting [1]); 101% on AuroraC (setting [1]); 101% at AuroraB; 99% on SRC (setting [1]).

As for `Nc1ccc2ccccc2c1-c1c(N)ccc2ccccc12` [1(S), S‐BINAM], the remaining activity at 10 µM at WEE1 (setting [2]) worked out at 98%; at AuroraC (setting [2]), 100%; at SRC (setting [2]), 103%; on AuroraA, 98%.
